In publication PMC7822874, “Chemoprotective antimalarials identified through quantitative high-throughput screening of Plasmodium blood and liver stage parasites” (Scientific Reports, 2021):
Read-outs that look alike come from different tables or passages of the source.

Test system: Plasmodium falciparum Dd2 asexual blood stage parasites
Assay: microbe, parasite or virus in culture
Set-up: species or system Plasmodium falciparum Dd2 in human erythrocytes; single determination (one 11-point concentration-response curve)
Conditions: Plasmodium falciparum, DD2, Erythrocyte, 72 h

Q: Which AC50 (read-out: AC50) does the source give for `COc1cccc(/C=C/C(=O)Nc2ccc3nc(N4CCN(C)CC4)cc(C)c3c2)c1OC` [NCGC00104449-01] here?
A: 5.96 µM

Q: `O=C(Nc1ccc2n(c1=O)C[C@H]1C[C@@H]2CN(Cc2ccc(F)cc2)C1)c1cccs1` [NCGC00395674-01] was tested. Which AC50 (read-out: AC50) did it give?
A: 15.3 µM

Q: `O=C1N(c2ccccc2C(F)(F)F)O[C@@]1(c1ccccc1)C1CCCCC1` [MLS002206598-01] was tested. Which AC50 (read-out: AC50) did it give?
A: 5.31 µM

Q: For `C[n+]1c(-c2ccccc2)cc(-c2ccc(Cl)cc2)cc1-c1ccccc1.[O-][Cl+3]([O-])([O-])O` [MLS001018624-01], which AC50 (read-out: AC50) is on record?
A: 6.68 µM

Q: For `O=C(NCC1CCCCC1)c1cc2ccccc2cc1O` [MLS001141978-01], which AC50 (read-out: AC50) is on record?
A: 9.44 µM

Q: For `CCC(Oc1ccccc1)C(=O)Nc1cc(C(F)(F)F)ccc1N1CCOCC1` (stereo not drawn) [MLS001099270-01], which AC50 (read-out: AC50) is on record?
A: 7.5 µM

Q: For `O=C1c2c(nc(CN3CCCC(CO)C3)n2Cc2ccccc2)NCCN1Cc1cccc(Cl)c1` (stereo not drawn) [NCGC00415148-01], which AC50 (read-out: AC50) is on record?
A: 15 µM

Q: For `COc1ccc(-c2cc(=O)c3cc(C)ccc3[nH]2)cc1` [MLS000517811-01], which AC50 (read-out: AC50) is on record?
A: 10.6 µM

Q: For `COc1ccc2cc1Nc1ccc(cc1)C[C@H](NCc1ccc(C)o1)C(=O)N(C)[C@H](C(=O)NCCC(C)C)C2` [NCGC00410286-01], which AC50 (read-out: AC50) is on record?
A: 5.96 µM

Q: With `Cc1ccc(C)c(N2CCN(C(=O)c3cc([S+](=O)([O-])N4CCCCCC4)cn3C)CC2)c1` [NCGC00132413-01] as the molecule, how does the AC50 (read-out: AC50) read?
A: 10.6 µM

Q: With `CCCCn1cc(C(=O)c2cc(Br)ccc2O)cc(C#N)c1=O` [MLS000568063-01] as the molecule, how does the AC50 (read-out: AC50) read?
A: 13.3 µM

Q: `COc1ccc(CNC[C@H]2O[C@H](Cc3cc(-c4ccc(OC)cc4)on3)CC[C@@H]2O)cc1` [NCGC00401026-01] was tested. Which AC50 (read-out: AC50) did it give?
A: 10.6 µM

Q: With `COc1ccccc1N1CCN(C(=O)CSc2nc(-c3ccc(C(C)C)cc3)no2)CC1` [NCGC00127900-01] as the molecule, how does the AC50 (read-out: AC50) read?
A: 0.376 µM

Q: With `Cc1nc(CN2C(=O)OC3(CCN(C(=O)c4ccc(Oc5ccccc5)cc4)CC3)C2(C)c2ccccc2)cs1` (stereo not drawn) [NCGC00415614-01] as the molecule, how does the AC50 (read-out: AC50) read?
A: 13.3 µM

Q: Which AC50 (read-out: AC50) does the source give for `CCCCC(O)(c1ccc(F)cc1)C(CN1CCOCC1)c1ccc(Cl)cc1` (stereo not drawn) [MLS001200342-01] here?
A: 5.96 µM

Q: Which AC50 (read-out: AC50) does the source give for `Cc1ccc2c(c1)c1c3n2CCCN(Cc2ccccc2)C3CCC1` (stereo not drawn) [MLS000525489-01] here?
A: 4.22 µM

Q: How did the AC50 (read-out: AC50) turn out when `Cc1cccc(Nc2cc(C)c3c(O)cccc3n2)c1C` [MLS000586980-01] was run?
A: 4.73 µM

Q: `Cc1cc([N+](=O)[O-])ccc1NC(=O)COc1nsnc1N1CCOCC1` [MLS000950344-01] was tested. Which AC50 (read-out: AC50) did it give?
A: 6.68 µM

Q: `CCN(CC)c1cc(CCC(=O)NCCN(C)C2CCCCC2)ccn1` [NCGC00469386-01] was tested. Which AC50 (read-out: AC50) did it give?
A: 13.3 µM

Q: How did the AC50 (read-out: AC50) turn out when `CCCCCCCn1c(NC(=O)CC)nc2ccccc21` [MLS001042192-01] was run?
A: 16.8 µM

Q: How did the AC50 (read-out: AC50) turn out when `Oc1ccc(-c2ccccc2)cc1CN1CCCCCC1` [MLS001195126-01] was run?
A: 0.266 µM

Q: Which AC50 (read-out: AC50) does the source give for `O=C1COCC2(CN(Cc3ccsc3)C2)CN1Cc1cccc(OC(F)(F)F)c1` [NCGC00418928-01] here?
A: 17.2 µM

Q: How did the AC50 (read-out: AC50) turn out when `Cc1ccc(Nc2cc(C)nn2-c2nc(C)cc(C)n2)cc1` [MLS000048464-01] was run?
A: 6.68 µM

Q: With `CC1CCN(C(=O)CSc2nc(-c3ccc(C(C)C)cc3)no2)CC1` [NCGC00127906-01] as the molecule, how does the AC50 (read-out: AC50) read?
A: 1.19 µM

Q: `COc1ccc(CCn2c(=N)c(C(=O)NCc3ccco3)cc3c(=O)n4cccc(C)c4nc32)cc1` [MLS000040240-01] was tested. Which AC50 (read-out: AC50) did it give?
A: 1.68 µM

Q: How did the AC50 (read-out: AC50) turn out when `COc1ccc(CCNC(=O)CC(c2ccccc2OC)c2c[nH]c3ccccc23)cc1OC` (stereo not drawn) [NCGC00473331-01] was run?
A: 13.3 µM

Q: `O=C1NC(=O)/C(=C\c2ccc(N3CCOCC3)o2)N1` [MLS000724369-01] was tested. Which AC50 (read-out: AC50) did it give?
A: 9.44 µM

Q: Which AC50 (read-out: AC50) does the source give for `O=C1NCc2ccccc2CC12CCCCN2CC1CC=CCC1` (stereo not drawn) [NCGC00377392-01] here?
A: 2.34 µM

Q: With `CC(=O)N1CCc2cc(Br)cc(S(=O)(=O)N3CCCCC3)c21` [MLS000936219-01] as the molecule, how does the AC50 (read-out: AC50) read?
A: 5.96 µM

Q: With `O=C(c1ccco1)c1cn(CCOc2ccc(F)cc2)c2ccccc12` [NCGC00101884-01] as the molecule, how does the AC50 read?
A: 6.68 µM

Q: Which AC50 (read-out: AC50) does the source give for `CCOc1cc(C2CC(=O)NC3=C2C(=O)C(C(=O)OC)C(C)C3)cc(Br)c1O` (stereo not drawn) [MLS000090952-01] here?
A: 6.68 µM

Q: How did the AC50 turn out when `CCCCCCSc1ccc([C@@H]2[C@H]3C(=O)N(CC)C(=O)[C@H]3[C@]3(C(=O)OC)CCCCN23)cc1OC` [MLS001362153-01] was run?
A: 15 µM

Q: How did the AC50 (read-out: AC50) turn out when `Cc1ccc(NC(=O)c2c(C)oc3ccc(O)c(CN(C)Cc4ccccc4)c23)c(C)c1` [NCGC00115687-01] was run?
A: 5.96 µM
